# Results as given in ChEMBL document CHEMBL6078647 (J Med Chem, 2024).
# The source made the active and inactive calls. The rule behind the calls is not given here. Square brackets hold non-standard residues; d marks the D form. Peptide text beside a SMILES is read from it. * marks the point of attachment. ξ: configuration not given here. X1 = C[N+]1=C(/C=C/C=C2\N(CCCCCC(=O)*)c3ccccc3C2(C)C)C(C)(C)c2ccccc21; PEG2 = NCCOCCOCCC(=O)O; ξD = NC(CC(=O)O)C(=O)O
# Columns and labels:
# [1] = target: T1, Type-1 angiotensin II receptor (Homo sapiens) (UniProt P30556); assay: Binding affinity to human GFP-tagged AT1R (unknown origin) extracted from HEK293 cell membrane assessed as colocalization of AT1R in plasma membrane at 30 nM preincubated with losartan at 10 uM followed by compound addition for 30 mins by epifluorescence microscopic analysis; format: cell membranes; settings: filed as antagonist
# T1 sequence (whole entry): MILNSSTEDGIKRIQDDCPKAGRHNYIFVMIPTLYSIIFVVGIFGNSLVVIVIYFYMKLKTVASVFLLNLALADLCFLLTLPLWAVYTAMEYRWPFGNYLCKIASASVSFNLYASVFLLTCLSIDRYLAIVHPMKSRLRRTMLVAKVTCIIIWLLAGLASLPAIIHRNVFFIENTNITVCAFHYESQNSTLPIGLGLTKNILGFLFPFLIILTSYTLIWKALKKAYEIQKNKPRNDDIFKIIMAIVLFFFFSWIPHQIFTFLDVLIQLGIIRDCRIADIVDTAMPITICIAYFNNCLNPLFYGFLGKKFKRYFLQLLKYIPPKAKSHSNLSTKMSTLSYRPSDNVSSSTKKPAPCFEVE
# [2] = target: T1, Type-1 angiotensin II receptor (Homo sapiens); assay: Binding affinity to GFP-tagged AT1R (unknown origin) extracted from HEK293 cell membrane assessed as fluorescent signal in plasma membrane incubated for 15 mins by confocal microscopic analysis; format: cell membranes; settings: filed as antagonist
# [3] = target: T2, Type-1 angiotensin II receptor (Homo sapiens, UniProt P30556); assay: Binding affinity to GFP-tagged AT1R (unknown origin) extracted from HEK293 cell membrane assessed as dissociation constant; format: cell membranes
# T2 sequence (P30556 whole entry): T1 sequence (whole entry)
# [4] = target: T2, Type-1 angiotensin II receptor; assay: Antagonist activity at Flag-tagged AT1R (unknown origin) extracted from HEK293 cell membrane co expressing YPET-ARRB1 assessed as beta-arrestin 1 recruitment using NanoGlo as substrate preincubated for 30 mins followed by substrate addition for 10 mins by BRET assay; format: functional, cell membranes
# [5] = target: T2, Type-1 angiotensin II receptor; assay: Antagonist activity at Flag-tagged AT1R (unknown origin) extracted from HEK293 cell membrane co expressing YPET-ARRB2 assessed as beta-arrestin 2 recruitment using NanoGlo as substrate preincubated for 30 mins followed by substrate addition for 10 mins by BRET assay; format: functional, cell membranes
# [6] = target: T2, Type-1 angiotensin II receptor; assay: Antagonist activity at Flag-tagged AT1R (unknown origin) extracted from HEK293 cell membrane assessed as increase in intracellular calcium incubated for 30 mins by microplate reader analysis; format: functional, cell membranes
# [7] = target: T1, Type-1 angiotensin II receptor (Homo sapiens); assay: Binding affinity to Flag-tagged AT1R (unknown origin) extracted from HEK293 cell membrane assessed as increase in median red fluorescence intensity at 1 nM incubated for 15 mins by flow cytometric analysis; format: cell membranes; settings: filed as antagonist
# [8] = target: T3, Type-2 angiotensin II receptor (Homo sapiens, UniProt P50052); assay: Binding affinity to human AT2R extracted from HEK293T cell membrane assessed as inhibition constant in presence of [125I][Sar1 Ile8]-angiotensin II by competitive radioligand binding assay; format: cell membranes
# T3 sequence (P50052 whole entry): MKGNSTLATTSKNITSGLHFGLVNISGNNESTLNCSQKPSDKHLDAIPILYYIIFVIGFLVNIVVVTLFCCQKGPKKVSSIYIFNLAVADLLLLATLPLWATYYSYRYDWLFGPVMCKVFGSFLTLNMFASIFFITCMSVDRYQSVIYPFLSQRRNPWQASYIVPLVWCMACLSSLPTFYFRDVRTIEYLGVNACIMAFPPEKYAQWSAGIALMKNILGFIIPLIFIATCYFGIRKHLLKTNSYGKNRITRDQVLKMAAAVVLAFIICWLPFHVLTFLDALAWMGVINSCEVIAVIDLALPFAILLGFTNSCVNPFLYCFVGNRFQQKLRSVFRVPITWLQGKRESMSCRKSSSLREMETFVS
# [9] = species: Homo sapiens; assay: Selectivity index, ratio of Ki for binding affinity to human AT2R extracted from HEK293T cell membrane in presence of [125I][Sar1 Ile8]-angiotensin II by competitive radioligand binding assay to Ki for binding affinity to human AT1R extracted from HEK293T cell membrane in presence of [125I][Sar1 Ile8]-angiotensin II by competitive radioligand binding assay
# [10] = Fluorescence property of compound in HEPES buffer assessed as quantum yield; format: physicochemical
# [11] = target: T1, Type-1 angiotensin II receptor (Homo sapiens); assay: Binding affinity to Flag-tagged AT1R (unknown origin) extracted from HEK293 cell membrane assessed as increase in median red fluorescence intensity at > 30 nM incubated for 30 mins by flow cytometric analysis; format: cell membranes
# [12] = target: T1, Type-1 angiotensin II receptor (Homo sapiens); assay: Induction of human NLuc-tagged AT1R (unknown origin) internalization in HEK293 cells co expressing venus-MP assessed as inhibition of AgII-induced AT1R internalization using NanoGlo as substrate preincubated for 30 mins followed by substrate addition for 10 mins by BRET assay; format: functional
# [13] = target: T4, Type-2 angiotensin II receptor (Homo sapiens) (UniProt P50052); assay: Binding affinity to GFP-tagged AT2R (unknown origin) extracted from HEK293 cell membrane assessed as fluorescent signal in plasma membrane incubated for 15 mins by confocal microscopic analysis; format: cell membranes
# T4 sequence (whole entry): T3 sequence (P50052 whole entry)
# [14] = target: T2, Type-1 angiotensin II receptor; assay: Binding affinity to human AT1R extracted from HEK293T cell membrane assessed as inhibition constant in presence of [125I][Sar1 Ile8]-angiotensin II by competitive radioligand binding assay; format: cell membranes; settings: for Ki: read-out: Ki
# [15] = tested on: Cerebral artery; assay: Vaso-constriction activity in male wistar rat middle cerebral artery assessed as arterial contraction at 1 uM; format: functional, tissue-based
# [16] = target: T1, Type-1 angiotensin II receptor (Homo sapiens); assay: Binding affinity to human GFP-tagged AT1R (unknown origin) extracted from HEK293 cell membrane assessed as colocalization of AT1R in endocytic vesicles at 100 nM incubated for 30 mins by epifluorescence microscopic analysis; format: cell membranes
# [17] = target: T4, Type-2 angiotensin II receptor (Homo sapiens); assay: Binding affinity to human GFP-tagged AT2R extracted from HEK293 cell membrane assessed as colocalization of AT2R in plasma membrane at 100 nM incubated for 30 mins by epifluorescence microscopic analysis; format: cell membranes
# [18] = target: T1, Type-1 angiotensin II receptor (Homo sapiens); assay: Agonist activity at AT1R (unknown origin) extracted from HEK293 cell membrane coexpressing NLuc and Venus-miniG assessed as miniGq protein recruitment at 1 uM using NanoGlo as substrate preincubated for 30 mins followed by substrate addition for 10 mins by BRET assay; format: functional, cell membranes; settings: filed as agonist, time 40.0 min
# [19] = species: Homo sapiens; assay: Selectivity index, ratio of Ki for binding affinity to human AT1R extracted from HEK293T cell membrane in presence of [125I][Sar1 Ile8]-angiotensin II by competitive radioligand binding assay to Ki for binding affinity to human AT2R extracted from HEK293T cell membrane in presence of [125I][Sar1 Ile8]-angiotensin II by competitive radioligand binding assay
# [20] = tested on: Cerebral artery; assay: Vaso-constriction activity in male wistar rat middle cerebral artery assessed as arterial contraction at 1 uM in presence of losartan; format: functional, tissue-based
# [21] = target: T1, Type-1 angiotensin II receptor (Homo sapiens); assay: Agonist activity at Flag-tagged AT1R (unknown origin) extracted from HEK293T cell membrane co expressing YPET-ARRB1 assessed as beta-arrestin 1 recruitment using NanoGlo as substrate preincubated for 30 mins followed by substrate addition for 10 mins by BRET assay; format: functional, cell membranes; settings: HEK293
# [22] = target: T1, Type-1 angiotensin II receptor (Homo sapiens); assay: Induction of human NLuc-tagged AT1R (unknown origin) internalization in HEK293 cells co expressing venus-MP using NanoGlo as substrate preincubated for 30 mins followed by substrate addition for 10 mins by BRET assay; format: functional
# [23] = target: T1, Type-1 angiotensin II receptor (Homo sapiens); assay: Agonist activity at Flag-tagged AT1R (unknown origin) extracted from HEK293 cell membrane co expressing YPET-ARRB2 assessed as beta-arrestin 2 recruitment using NanoGlo as substrate preincubated for 30 mins followed by substrate addition for 10 mins by BRET assay; format: functional, cell membranes
# [24] = tested on: Cerebral artery; assay: Vaso-constriction activity in male wistar rat middle cerebral artery assessed as arterial contraction at 10 nM; format: functional, tissue-based
structure (smiles),measurement,setting,value
CCCCc1nc(Cl)c(C(=O)NCCOCCOCCNC(=O)CCCCCN2/C(=C/C=C/C3=[N+](C)c4ccccc4C3(C)C)C(C)(C)c3ccccc32)n1Cc1ccc(-c2ccccc2-c2nn[nH]n2)cc1.F[B-](F)(F)F,Activity,[1],Active
same,Activity,[2],Active
same,Kd,[3],~0.03 µM
same,EC50,[4],Active
same,EC50,[5],Active
same,EC50,[6],Active
same,Activity,[7],Active
same,Ki,[8]; read-out: Ki,5.57 µM
same,Ki,[8]; read-out: pKi (converted),3.02 µM
same,Ratio Ki,[9],521
same,Activity,[10],0.232
same,Activity,[11],inactive
same,Activity,[12],Dose-dependent-effect
same,Activity,[13],inactive
same,Ki,[14],0.0107 µM
CC[C@H](C)[C@H](NC(=O)[C@H](Cc1ccc(O)cc1)NC(=O)[C@@H](NC(=O)[C@H](CCCNC(=N)N)NC(=O)CN(C)C(=O)CCOCCOCCNC(=O)CCCCCN1/C(=C\C=C\C2=[N+](C)c3ccccc3C2(C)C)C(C)(C)c2ccccc21)C(C)C)C(=O)N[C@@H](Cc1c[nH]cn1)C(=O)N1CCC[C@H]1C(=O)N[C@@H](C)C(=O)O,Activity,[15],Active
same,Activity,[16],inactive
same,Activity,[17],inactive
same,Ki,[8]; read-out: Ki,0.0226 µM
same,Ki,[8]; read-out: pKi (converted),0.0162 µM
same,Activity,[18],Active
same,Activity,[10],0.058
same,Ratio Ki,[19],> 500
same,pKi,[14]; hek293t,< 5
same,Ki,[14],> 10 µM
CC[C@H](C)[C@H](NC(=O)[C@@H](NC(=O)C(CC(=O)O)NC(=O)[C@@H]1CCCN1C(=O)[C@H](Cc1c[nH]cn1)NC(=O)[C@H](Cc1ccccc1)NC(=O)[C@H](Cc1ccc(O)cc1)NC(=O)CCOCCOCCNC(=O)CCCCCN1/C(=C\C=C\C2=[N+](C)c3ccccc3C2(C)C)C(C)(C)c2ccccc21)C(C)C)C(=O)N[C@@H](CCCNC(=N)N)C(=O)O (stereo partly drawn) ({X1-PEG2}-YFHP[ξD]VIR-OH),Activity,[20],Active
same,Activity,[21],inactive
same,Activity,[22],inactive
same,Activity,[23],inactive
same,Activity,[10],0.064
CC[C@H](C)[C@H](NC(=O)[C@H](Cc1ccc(O)cc1)NC(=O)[C@@H](NC(=O)[C@H](CCCNC(=N)N)NC(=O)[C@H](CC(=O)O)NC(=O)CCCCCN1/C(=C\C=C\C2=[N+](C)c3ccccc3C2(C)C)C(C)(C)c2ccccc21)C(C)C)C(=O)N[C@@H](Cc1c[nH]cn1)C(=O)N1CCC[C@H]1C(=O)N[C@@H](Cc1ccccc1)C(=O)O,Activity,[15],Active
same,Activity,[10],0.08
same,Activity,[24],Active
